# Results reported in US10214519B2, “Phosphatidylinositol 3-kinase inhibitors” (Gilead Sciences, Inc., priority 2016, dated 2019).
# Molecular target: PI3Kβ (Homo sapiens (Human), UniProt P42338)
# Assay: PI3K isoform TR-FRET enzymatic assay (PI3Kβ)
# Type: biochemical
# Conditions: 2× Km ATP, 30 minutes at 25° C.
# Protocol: The compounds of formula (I) were characterized for their enzymatic activity against the PI3K isoforms. The activities were measured using a time-resolved fluorescence resonance energy transfer (TR-FRET) assay. TR-FRET monitored the formation of 3,4,5-inositol triphosphate molecule that competed with fluorescently labeled PIP3 for binding to the GRP-1 pleckstrin homology domain protein.
# Class I PI3K isoforms were expressed and purified as heterodimeric recombinant proteins. All assay reagents and buffers for the TR-FRET assay were purchased from Millipore. […] The compounds were added to the assay solution and incubated for 30 minutes at 25° C. The reactions were terminated with a final concentration of 10 mM EDTA, 10 nM labeled-PIP3, and 35 nM Europium labeled GRP-1 detector protein before reading TR-FRET on an Envision plate reader (Ex: 340 nm; Em: 615/665 nm; 100 μs delay and 500 μs read window).
# The results were normalized based on positive (1 μM wortmanin) and negative (DMSO) controls, and the IC50 values for PI3K α, β, δ, and γ were calculated from the fit of the dose-response curves to a four-parameter equation.
# Chain of PI3Kβ (P42338 whole entry, canonical isoform): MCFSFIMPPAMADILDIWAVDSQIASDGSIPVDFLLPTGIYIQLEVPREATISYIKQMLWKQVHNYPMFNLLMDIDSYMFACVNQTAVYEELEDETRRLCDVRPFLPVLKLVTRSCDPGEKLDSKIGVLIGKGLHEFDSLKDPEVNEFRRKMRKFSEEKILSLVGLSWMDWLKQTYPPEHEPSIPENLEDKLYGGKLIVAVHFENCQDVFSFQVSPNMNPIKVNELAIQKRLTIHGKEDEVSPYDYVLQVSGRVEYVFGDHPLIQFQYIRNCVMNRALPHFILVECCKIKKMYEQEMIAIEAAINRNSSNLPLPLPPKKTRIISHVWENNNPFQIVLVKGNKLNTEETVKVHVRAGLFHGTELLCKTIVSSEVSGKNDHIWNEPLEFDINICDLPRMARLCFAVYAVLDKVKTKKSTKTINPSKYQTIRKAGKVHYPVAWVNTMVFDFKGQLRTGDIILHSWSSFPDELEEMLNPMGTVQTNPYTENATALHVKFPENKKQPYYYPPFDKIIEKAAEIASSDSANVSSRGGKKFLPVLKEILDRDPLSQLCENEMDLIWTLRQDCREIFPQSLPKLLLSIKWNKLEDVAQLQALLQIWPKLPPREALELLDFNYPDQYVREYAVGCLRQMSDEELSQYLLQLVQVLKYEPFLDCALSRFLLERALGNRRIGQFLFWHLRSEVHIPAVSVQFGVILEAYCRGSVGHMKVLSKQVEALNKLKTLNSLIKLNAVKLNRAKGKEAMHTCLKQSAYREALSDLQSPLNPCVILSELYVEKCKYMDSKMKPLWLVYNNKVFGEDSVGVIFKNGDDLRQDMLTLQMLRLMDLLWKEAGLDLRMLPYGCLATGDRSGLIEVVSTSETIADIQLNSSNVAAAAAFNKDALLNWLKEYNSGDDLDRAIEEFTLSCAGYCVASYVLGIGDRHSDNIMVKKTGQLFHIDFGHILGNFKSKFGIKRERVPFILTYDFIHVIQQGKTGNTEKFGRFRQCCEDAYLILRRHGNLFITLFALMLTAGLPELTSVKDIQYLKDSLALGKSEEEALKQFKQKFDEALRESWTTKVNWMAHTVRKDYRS
# Chain of PI3Kβ (P27986 whole entry partner, canonical isoform): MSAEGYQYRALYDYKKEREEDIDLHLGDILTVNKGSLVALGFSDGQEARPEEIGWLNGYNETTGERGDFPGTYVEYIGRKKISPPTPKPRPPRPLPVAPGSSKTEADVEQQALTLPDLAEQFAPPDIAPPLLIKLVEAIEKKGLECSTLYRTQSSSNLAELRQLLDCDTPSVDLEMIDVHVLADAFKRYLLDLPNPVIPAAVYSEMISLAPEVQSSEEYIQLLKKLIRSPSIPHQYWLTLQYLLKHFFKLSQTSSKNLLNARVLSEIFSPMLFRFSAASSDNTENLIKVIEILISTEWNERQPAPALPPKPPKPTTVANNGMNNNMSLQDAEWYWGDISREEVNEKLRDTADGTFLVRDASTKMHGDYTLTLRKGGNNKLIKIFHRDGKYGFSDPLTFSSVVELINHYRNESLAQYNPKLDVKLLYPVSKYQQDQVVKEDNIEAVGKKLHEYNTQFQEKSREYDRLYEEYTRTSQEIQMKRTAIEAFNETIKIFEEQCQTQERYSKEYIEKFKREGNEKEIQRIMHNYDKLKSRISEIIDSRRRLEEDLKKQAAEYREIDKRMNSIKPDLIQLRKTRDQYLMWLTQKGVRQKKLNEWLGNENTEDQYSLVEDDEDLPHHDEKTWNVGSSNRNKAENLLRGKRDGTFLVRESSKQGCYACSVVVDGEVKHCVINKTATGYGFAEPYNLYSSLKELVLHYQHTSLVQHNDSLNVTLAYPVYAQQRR
row,Compound,IC50 [nM]
1,"CCc1nc2c(-c3ncc[nH]3)cc(N3CCOCC3)cc2n1-c1ccnc2c(F)ccc(F)c12 (atropisomer, axis not shown) [Compound 370, 4-(1-(5,8-difluoroquinolin-4-yl)-2-ethyl-4-(1H-imidazol-2-yl)-1H-benzo[d]imidazol-6-yl)morpholine]",13
2,"CCc1nc2c(-c3ncc[nH]3)cc(N3CCOCC3)cc2n1-c1ccnc2c(F)ccc(F)c12 (atropisomer, axis not shown) [Compound 371, 4-(1-(5,8-difluoroquinolin-4-yl)-2-ethyl-4-(1H-imidazol-2-yl)-1H-benzo[d]imidazol-6-yl)morpholine]",6800
3,"Cc1nc2c(-c3cnc(Cl)[nH]3)cc(N3CCOCC3)cc2n1-c1ccnc2c(F)ccc(F)c12 (atropisomer, axis not shown) [Compound 372, 4-(4-(2-chloro-1H-imidazol-5-yl)-1-(5,8-difluoroquinolin-4-yl)-2-methyl-1H-benzo[d]imidazol-6-yl)morpholine]",6
4,"Cc1nc2c(-c3cnc(Cl)[nH]3)cc(N3CCOCC3)cc2n1-c1ccnc2c(F)ccc(F)c12 (atropisomer, axis not shown) [Compound 373, 4-(4-(2-chloro-1H-imidazol-5-yl)-1-(5,8-difluoroquinolin-4-yl)-2-methyl-1H-benzo[d]imidazol-6-yl)morpholine]",1000
5,"Cc1cnc2c(C#N)cccc2c1-n1c(C)nc2c(-c3nnc[nH]3)cc(N3CCOCC3)cc21 (atropisomer, axis not shown) [Compound 374, 3-methyl-4-(2-methyl-6-morpholino-4-(4H-1,2,4-triazol-3-yl)-1H-benzo[d]imidazol-1-yl)quinoline-8-carbonitrile]",22
6,"Cc1cnc2c(C#N)cccc2c1-n1c(C)nc2c(-c3nnc[nH]3)cc(N3CCOCC3)cc21 (atropisomer, axis not shown) [Compound 375, 3-methyl-4-(2-methyl-6-morpholino-4-(4H-1,2,4-triazol-3-yl)-1H-benzo[d]imidazol-1-yl)quinoline-8-carbonitrile]",7100
7,"Cc1nc2c(-c3ncco3)cc(N3CCOCC3)cc2n1-c1ccnc2c(F)cccc12 (atropisomer, axis not shown) [Example 340, 4-[3-(8-fluoroquinolin-4-yl)-2-methyl-7-(1,3-oxazol-2-yl)benzimidazol-5-yl]morpholine]",1900
8,"Cc1nc2c(-c3ncco3)cc(N3CCOCC3)cc2n1-c1ccnc2c(F)cccc12 (atropisomer, axis not shown) [Example 341, 4-[3-(8-fluoroquinolin-4-yl)-2-methyl-7-(1,3-oxazol-2-yl)benzimidazol-5-yl]morpholine]",6
9,"CCCc1nc2c(-c3nnc[nH]3)cc(N3CCOCC3)cc2n1-c1ccnc2c(Cl)cccc12 [Compound 1, 4-(1-(8-chloroquinolin-4-yl)-2-propyl-4-(4H-1,2,4-triazol-3-yl)-1H-benzo[d]imidazol-6-yl)morpholine 2,2,2-trifluoroacetate]",4
10,"N#Cc1ncc(-c2cc(N3CCOCC3)cc3c2ncn3-c2ccnc3c(F)ccc(F)c23)[nH]1 [Compound 394, 5-(1-(5,8-Difluoroquinolin-4-yl)-6-morpholino-1H-benzo[d]imidazol-4-yl)-1H-imidazole-2-carbonitrile]",860
11,"Cc1nnc(-c2cc(N3CCOCC3)cc3c2nc(CC(C)C)n3-c2ccnc3c(Cl)cccc23)[nH]1 [Example 2, 4-(1-(8-chloroquinolin-4-yl)-2-isobutyl-4-(5-methyl-4H-1,2,4-triazol-3-yl)-1H-benzo[d]imidazol-6-yl)morpholine]",24
12,"CCCc1nc2c(-c3nnc(C)[nH]3)cc(N3CCOCC3)cc2n1-c1ccnc2c(F)ccc(F)c12 [Example 3, 4-(1-(5,8-difluoroquinolin-4-yl)-4-(5-methyl-4H-1,2,4-triazol-3-yl)-2-propyl-1H-benzo[d]imidazol-6-yl)morpholine]",24
13,"CC1(c2nc3c(-c4nnc[nH]4)cc(N4CCOCC4)cc3n2-c2ccnc3c(Cl)cccc23)CC1 [Example 4, 4-(1-(8-chloroquinolin-4-yl)-2-(1-methylcyclopropyl)-4-(4H-1,2,4-triazol-3-yl)-1H-benzo[d]imidazol-6-yl)morpholine]",28
14,"CCc1nc2c(-c3nnc[nH]3)cc(N3CCOCC3)cc2n1-c1ccnc2c(F)ccc(Cl)c12 [Example 5, 4-(1-(5-chloro-8-fluoroquinolin-4-yl)-2-ethyl-4-(4H-1,2,4-triazol-3-yl)-1H-benzo[d]imidazol-6-yl)morpholine]",29
15,"c1ccc(-c2nc3c(-c4nnc[nH]4)cc(N4CCOCC4)cc3n2-c2ccnc3ccccc23)nc1 [Example 6, 4-(2-(pyridin-2-yl)-1-(quinolin-4-yl)-4-(4H-1,2,4-triazol-3-yl)-1H-benzo[d]imidazol-6-yl)morpholine]",31
16,"CCCc1nc2c(-c3nnc[nH]3)cc(N3CCOCC3)cc2n1-c1ccnc2cc(F)ccc12 [Example 7, 4-(1-(7-fluoroquinolin-4-yl)-2-propyl-4-(4H-1,2,4-triazol-3-yl)-1H-benzo[d]imidazol-6-yl)morpholine]",31
17,"Cc1nnc(-c2cc(N3CCOCC3)cc3c2nc(CC2CC2)n3-c2ccnc3c(Cl)cccc23)[nH]1 [Example 8, 4-(1-(8-chloroquinolin-4-yl)-2-(cyclopropylmethyl)-4-(5-methyl-4H-1,2,4-triazol-3-yl)-1H-benzo[d]imidazol-6-yl)morpholine]",32
18,"Clc1cccc2c(-n3c(C4CCOC4)nc4c(-c5nnc[nH]5)cc(N5CCOCC5)cc43)ccnc12 (stereo not drawn) [Example 9, 4-(1-(8-chloroquinolin-4-yl)-2-(tetrahydrofuran-3-yl)-4-(4H-1,2,4-triazol-3-yl)-1H-benzo[d]imidazol-6-yl)morpholine]",33
19,"Clc1cccc2c(-n3c(-c4cccnc4)nc4c(-c5nnc[nH]5)cc(N5CCOCC5)cc43)ccnc12 [Example 10, 4-(1-(8-chloroquinolin-4-yl)-2-(pyridin-3-yl)-4-(4H-1,2,4-triazol-3-yl)-1H-benzo[d]imidazol-6-yl)morpholine]",41
20,"CCCc1nc2c(-c3nnc(C)[nH]3)cc(N3CCOCC3)cc2n1-c1ccnc2c(Cl)ccc(F)c12 [Example 11, 4-(1-(8-chloro-5-fluoroquinolin-4-yl)-4-(5-methyl-4H-1,2,4-triazol-3-yl)-2-propyl-1H-benzo[d]imidazol-6-yl)morpholine]",42
21,"COC(C)c1nc2c(-c3nnc[nH]3)cc(N3CCOCC3)cc2n1-c1ccnc2c(Cl)cccc12 (stereo not drawn) [Example 12, 4-(1-(8-chloroquinolin-4-yl)-2-(1-methoxyethyl)-4-(4H-1,2,4-triazol-3-yl)-1H-benzo[d]imidazol-6-yl)morpholine]",43
22,"Cc1nnc(-c2cc(N3CCOCC3)cc3c2nc(C2CCC2)n3-c2ccnc3c(Cl)cccc23)[nH]1 [Example 13, 4-(1-(8-chloroquinolin-4-yl)-2-cyclobutyl-4-(5-methyl-4H-1,2,4-triazol-3-yl)-1H-benzo[d]imidazol-6-yl)morpholine]",45
23,"Cc1nnc(-c2cc(N3CCOCC3)cc3c2nc(C(C)C)n3-c2ccnc3c(Cl)cccc23)[nH]1 [Example 14, 4-(1-(8-chloroquinolin-4-yl)-2-isopropyl-4-(5-methyl-4H-1,2,4-triazol-3-yl)-1H-benzo[d]imidazol-6-yl)morpholine]",49
24,"Clc1cccc2c(-n3c(-c4ccncc4)nc4c(-c5nnc[nH]5)cc(N5CCOCC5)cc43)ccnc12 [Example 15, 4-(1-(8-chloroquinolin-4-yl)-2-(pyridin-4-yl)-4-(4H-1,2,4-triazol-3-yl)-1H-benzo[d]imidazol-6-yl)morpholine]",49
25,"Cc1nnc(-c2cc(N3CCOCC3)cc3c2nc(C2CCCO2)n3-c2ccnc3c(Cl)cccc23)[nH]1 (stereo not drawn) [Example 16, 4-(1-(8-chloroquinolin-4-yl)-4-(5-methyl-4H-1,2,4-triazol-3-yl)-2-(tetrahydrofuran-2-yl)-1H-benzo[d]imidazol-6-yl)morpholine]",53
26,"c1ccc2c(-n3c(C4CC4)nc4c(-c5nnc[nH]5)cc(N5CCOCC5)cc43)ccnc2c1 [Example 17, 4-(2-cyclopropyl-1-(quinolin-4-yl)-4-(4H-1,2,4-triazol-3-yl)-1H-benzo[d]imidazol-6-yl)morpholine]",60
27,"Cc1nnc(-c2cc(N3CCOCC3)cc3c2nc(C)n3-c2ccnc3c(Cl)cc(F)cc23)[nH]1 [Example 18, 4-(1-(8-chloro-6-fluoroquinolin-4-yl)-2-methyl-4-(5-methyl-4H-1,2,4-triazol-3-yl)-1H-benzo[d]imidazol-6-yl)morpholine]",63
28,"Cc1nnc(-c2cc(N3CCOCC3)cc3c2nc(C)n3-c2ccnc3ccccc23)[nH]1 [Example 19, 4-(2-methyl-4-(5-methyl-4H-1,2,4-triazol-3-yl)-1-(quinolin-4-yl)-1H-benzo[d]imidazol-6-yl)morpholine]",110
29,"CC(C)(C)c1nc2c(-c3nnc[nH]3)cc(N3CCOCC3)cc2n1-c1ccnc2c(Cl)cccc12 [Example 20, 4-(2-(tert-butyl)-1-(8-chloroquinolin-4-yl)-4-(4H-1,2,4-triazol-3-yl)-1H-benzo[d]imidazol-6-yl)morpholine]",120
30,"CCCc1nc2c(-c3nnc(C)[nH]3)cc(N3CCOCC3)cc2n1-c1ccnc2cc(F)ccc12 [Example 21, 4-(1-(7-fluoroquinolin-4-yl)-4-(5-methyl-4H-1,2,4-triazol-3-yl)-2-propyl-1H-benzo[d]imidazol-6-yl)morpholine]",130
